From PubChem BioAssay (NCI) come the findings set out here.

Where “and” joins values, the source holds several entries; their conditions need not be identical. Equal entries are not always repeated.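 Values below derive from 48-hour exposures of cells grown in 96-well plates, with endpoints linearly interpolated between the two concentrations bracketing the appropriate inhibition level. At the GI50, growth is halved. Definition used: TGI = concentration required for complete inhibition of growth.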

Among the test systems are HT29 colon; RPMI-8226 leukemia; KM12 colon; U251 CNS; SK-MEL-5 melanoma; DMS 273 small cell lung; HL-60(TB) leukemia; KM20L2 colon; MDA-MB-435; PC-3 prostate.
What all share (test): NCI anticancer screen, dose series, 48 h

Take `COC(=O)C1CC(C(=O)OC)c2nc3cc(C)ccc3nc21` (configuration not stated): the TGI in the assay on HT29 colon, with RPMI-8226 leukemia, with KM12 colon, in the assay on U251 CNS, with SK-MEL-5 melanoma and with DMS 273 small cell lung was over 100 µM in each case. Also, the TGI in the assay with HL-60(TB) leukemia and with KM20L2 colon was over 100 µM in each case.
As for `Cc1ccc(NC(=O)CC2C(=O)Nc3ccccc3S2=O)cc1C` (configuration not stated), the TGI in the assay with HT29 colon, in the assay with RPMI-8226 leukemia, with U251 CNS, with SK-MEL-5 melanoma, in the assay with DMS 273 small cell lung and with HL-60(TB) leukemia was over 100 µM throughout. Besides, in the assay with KM20L2 colon, the TGI was over 100 µM.
For `CCN(Cc1cccc(OC)c1)c1ccc(CO)c(Cl)c1`, the GI50 in the assay with HT29 colon was 2.13 µM; with RPMI-8226 leukemia it was 6.44 µM; in the assay with KM12 colon, 17.1 µM; with U251 CNS, 0.88 µM; in the assay on SK-MEL-5 melanoma, 10.2 µM; in the assay with HL-60(TB) leukemia, 14.6 µM. Besides, the GI50 with MDA-MB-435 was 16.6 µM; in the assay on PC-3 prostate, 19.8 µM. Besides, the TGI worked out at 17.3 µM with HT29 colon; 47.9 µM with RPMI-8226 leukemia; 40.5 µM in the assay on KM12 colon; 19.9 µM with U251 CNS; 22.7 µM in the assay with SK-MEL-5 melanoma; 51.7 µM with HL-60(TB) leukemia. In addition, the TGI stood at 35.6 µM with MDA-MB-435 and 74.3 µM in the assay with PC-3 prostate.
As to `O=S(=O)([O-])c1cccc2cccc(N=Cc3ccccc3[O-])c12.O=S(=O)([O-])c1cccc2cccc(N=Cc3ccccc3[O-])c12.[O]=[U]=[O]`, the GI50 is 58 µM in the assay on HT29 colon; 39.8 µM with RPMI-8226 leukemia; 30.8 µM in the assay with U251 CNS; 42.7 µM in the assay on DMS 273 small cell lung; over 100 µM in the assay with KM20L2 colon. Also, the TGI in the assay with HT29 colon, in the assay with RPMI-8226 leukemia, in the assay with U251 CNS, in the assay with DMS 273 small cell lung and in the assay on KM20L2 colon was over 100 µM in each case.
As to `CC(=O)Nc1ccc(/C=C/[N+](=O)[O-])cc1`, the TGI in the assay on HT29 colon was 3.93 µM; in the assay on RPMI-8226 leukemia, 4.73 µM; in the assay on KM12 colon it was 26.7 µM; with U251 CNS, 11.6 µM; in the assay on SK-MEL-5 melanoma, 5.97 µM; in the assay with HL-60(TB) leukemia, 6.44 µM. Further, the values for the TGI in the assay with MDA-MB-435 and with PC-3 prostate were 9.23 µM and 16.7 µM, respectively.
As for `COc1ccc(-n2c(SCc3cc(OC)c(OC)c(OC)c3)nc3ccc(C)cc3c2=O)c(OC)c1`, the GI50 in the assay with HT29 colon is 4.04 µM; in the assay on RPMI-8226 leukemia, 2.44 µM; with KM12 colon, 3.42 µM; with U251 CNS, 4.86 µM; with SK-MEL-5 melanoma it was 3.39 µM; in the assay on HL-60(TB) leukemia, 2.14 µM. The values for the GI50 with MDA-MB-435 and in the assay on PC-3 prostate were 1.05 µM and 3.63 µM, respectively. For the same compound, the TGI in the assay with HT29 colon is over 100 µM; in the assay with RPMI-8226 leukemia, over 100 µM; in the assay on KM12 colon, over 100 µM; with U251 CNS it was over 100 µM; with SK-MEL-5 melanoma it was over 100 µM; with HL-60(TB) leukemia it was 4.77 µM. The TGI in the assay on MDA-MB-435 is 3.07 µM; in the assay with PC-3 prostate it was over 100 µM.
As for `CC1OC(n2ncc(=O)[nH]c2=O)C=CC1=O` (configuration not stated), the TGI in the assay with HT29 colon was over 100 µM; with RPMI-8226 leukemia it was 99.3 µM and 62 µM; in the assay with KM12 colon, over 100 µM; in the assay on U251 CNS, over 100 µM; in the assay on HL-60(TB) leukemia, 57.5 µM and 52.7 µM; in the assay on KM20L2 colon, over 100 µM. The GI50 with KM20L2 colon was > 100 µM and 40.7 µM.
Consider `CC(=O)OC[C@H]1O[C@@H](n2ccc(=O)[nH]c2=O)[C@H](OC(C)=O)[C@@H]1OC(C)=O`, for which the GI50 in the assay on HT29 colon, with RPMI-8226 leukemia, in the assay on KM12 colon, in the assay on U251 CNS, in the assay on SK-MEL-5 melanoma and with HL-60(TB) leukemia was over 100 µM each time. In addition, the GI50 with MDA-MB-435 and in the assay with PC-3 prostate was over 100 µM throughout. Moreover, the TGI with HT29 colon, in the assay with RPMI-8226 leukemia, in the assay with KM12 colon, with U251 CNS, in the assay with SK-MEL-5 melanoma and in the assay with HL-60(TB) leukemia was over 100 µM throughout. Moreover, the TGI in the assay with MDA-MB-435 and with PC-3 prostate was over 100 µM throughout.
As for `CC12CCC3C(CC=C4CC(O)CCC43C)C1C/C(=C\N1CCCC1)C2=O` (configuration not stated), the GI50 in the assay on HT29 colon was over 100 µM; in the assay with RPMI-8226 leukemia, 37 µM; in the assay on KM12 colon it was 73.3 µM; with U251 CNS it was over 100 µM; in the assay on SK-MEL-5 melanoma, 64.5 µM; in the assay with HL-60(TB) leukemia, 75.3 µM. Also, the GI50 was over 100 µM in the assay with MDA-MB-435 and 55 µM with PC-3 prostate. For the same compound, the TGI with HT29 colon, in the assay with RPMI-8226 leukemia, in the assay with KM12 colon, in the assay on U251 CNS, in the assay with SK-MEL-5 melanoma and with HL-60(TB) leukemia was over 100 µM each time. For the same compound, the TGI in the assay on MDA-MB-435 and in the assay on PC-3 prostate was over 100 µM throughout.
Regarding `COc1ccc2[nH]c(-c3ccccn3)cc(=O)c2c1`, the TGI with HT29 colon, in the assay on RPMI-8226 leukemia, with KM12 colon, in the assay with SK-MEL-5 melanoma, in the assay on HL-60(TB) leukemia and in the assay on KM20L2 colon was over 100 µM in each case. Further, the GI50 was 28.5 µM in the assay on SK-MEL-5 melanoma and 35.1 µM with KM20L2 colon.
For `O=C(O)c1cc2ccccc2c(O)c1O`, the TGI in the assay with HT29 colon is 49.3 µM; in the assay on RPMI-8226 leukemia, over 76.1 µM; in the assay with KM12 colon, 30.4 µM; with U251 CNS, 31 µM; in the assay on SK-MEL-5 melanoma it was 8.18 µM; in the assay with HL-60(TB) leukemia, over 74.3 µM. In addition, the TGI turned out to be 3.33 µM in the assay on MDA-MB-435 and 37 µM with PC-3 prostate.
Consider `COC(=O)C1=C(C)N(NC(N)=O)C2(N)N(NC(N)=O)C(C)=C(C(=O)OC)C12C(=O)OC` (configuration not stated), for which the TGI in the assay with HT29 colon is over 100 µM; in the assay on RPMI-8226 leukemia, over 100 µM; in the assay on KM12 colon, over 10 µM; in the assay on U251 CNS, over 100 µM; in the assay on DMS 273 small cell lung it was over 100 µM; in the assay with HL-60(TB) leukemia, over 100 µM. Also, in the assay on KM20L2 colon, the TGI is over 100 µM.
